Laboratory results taken from patent US11083199B2, “Heterocycle derivatives as pesticides” (Bayer Aktiengesellschaft, priority 2017, dated 2021).

Assays:
Format in all cases: in vivo
Myzus persicae [1] = experiment: Myzus persicae spray test; details: foliar, 120 h, application rate 100 g/ha, Chinese cabbage leaf discs, after 5 days, read-out: efficacy
In short: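 Chinese cabbage leaf discs infested with all aphid stages sprayed with compound formulated in emulsifier-containing water (1000 ppm emulsifier). Efficacy (% aphids killed; 100% = all killed) determined after 5 days.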

Phaedon cochleariae = Phaedon cochleariae spray test; details: 168 h, application rate 100 g/ha, larvae, after 7 days, read-out: efficacy
In short: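 Chinese cabbage leaf discs sprayed with compound formulated in solvent and water containing 1000 ppm emulsifier. Once dry, discs were populated with mustard beetle larvae. Percent kill scored after 7 days, 100% meaning all larvae dead and 0% none.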

Myzus persicae [2] = experiment: Myzus persicae oral test; details: 120 h, application rate 4 ppm, after 5 days, read-out: efficacy
In short: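 Compound formulation diluted with IPL41 insect medium (33%+15% sugar) and sealed under parafilm; mixed-population aphids feed through the membrane from a second plate. Mortality scored after 5 days as % efficacy (100% = all aphids killed, 0% = none).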

Spodoptera frugiperda = Spodoptera frugiperda spray test; details: foliar, 168 h, application rate 100 g/ha, maize leaf discs, caterpillars, after 7 days, read-out: efficacy
In short: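 Maize leaf discs sprayed with compound formulated in solvent plus water with 1000 ppm emulsifier, dried, then infested with fall armyworm caterpillars. Mortality scored after 7 days as % efficacy (100% = all caterpillars killed, 0% = none).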

Ctenocephalides felis [3] = experiment: Ctenocephalides felis oral test; details: 48 h, application rate 100 ppm in citrated cattle blood, kill after 2 days, read-out: efficacy
Method: Solvent: dimethyl sulfoxide To produce a suitable active ingredient formulation, 10 mg of active ingredient are mixed with 0.5 ml of dimethyl sulfoxide. Dilution with citrated cattle blood gives the desired concentration. About 20 unfed adult cat fleas (Ctenocephalides felis) are placed into a chamber which is closed at the top and bottom with gauze. A metal cylinder whose bottom end is closed with parafilm is placed onto the chamber. The cylinder contains the blood/active ingredient formulation, which can be imbibed by the fleas through the parafilm membrane. After 2 days, the kill in % is determined. 100% means that all of the fleas have been killed; 0% means that none of the fleas have been killed.

Lucilia cuprina = Lucilia cuprina test; details: 48 h, application rate 100 ppm, L1 larvae, kill after 2 days, read-out: efficacy
Method: Solvent: dimethyl sulfoxide To produce a suitable active ingredient formulation, 10 mg of active ingredient are mixed with 0.5 ml of dimethyl sulfoxide, and the concentrate is diluted with water to the desired concentration. About 20 L1 larvae of the Australian sheep blowfly (Lucilia cuprina) are transferred into a test vessel containing minced horsemeat and the active ingredient formulation of the desired concentration. After 2 days, the kill in % is determined. 100% means that all the larvae have been killed; 0% means that no larvae have been killed.

Ctenocephalides felis [4] = experiment: Ctenocephalides felis in vitro contact test with adult cat fleas; details: application rate 5 μg/cm^2 (=500 g/ha), adult cat fleas dead or moribund after 48 h, read-out: efficacy
Method: For the coating of the test tubes, 9 mg of active ingredient are first dissolved in 1 ml of acetone p.a. and then diluted to the desired concentration with acetone p.a. 250 μl of the solution are distributed homogeneously on the inner walls and the base of a 25 ml glass tube by turning and rocking on an orbital shaker (rocking rotation at 30 rpm for 2 h). With 900 ppm of active ingredient solution and internal surface area 44.7 cm^2, given homogeneous distribution, an area-based dose of 5 μg/cm^2 is achieved. After the solvent has evaporated off, the tubes are populated with 5-10 adult cat fleas (Ctenocephalides felis), sealed with a perforated plastic lid and incubated in a horizontal position at room temperature and ambient humidity. After 48 h, efficacy is determined. To this end, the tubes are stood upright and the fleas are knocked to the base of the tube. Fleas which remain motionless at the base or move in an uncoordinated manner are considered to be dead or moribund. […] 100% efficacy means that all the fleas were dead or moribund. 0% efficacy means that no fleas were harmed.

Musca domestica = Musca domestica test; details: application rate 100 ppm; adult houseflies, kill after 2 days
Method: Solvent: dimethyl sulfoxide To produce a suitable active ingredient formulation, 10 mg of active ingredient are mixed with 0.5 ml of dimethyl sulfoxide, and the concentrate is diluted with water to the desired concentration. Vessels containing a sponge treated with sugar solution and the desired concentration of active ingredient formulation are populated with 10 adult houseflies (Musca domestica). After 2 days, the kill in % is determined. 100% means that all of the flies have been killed; 0% means that none of the flies have been killed.

Boophilus microplus = Boophilus microplus injection test; details: application rate 20 μg/animal, injected; laying of fertile eggs assessed after 7 days
Method: Solvent: dimethyl sulfoxide To produce a suitable active ingredient formulation, 10 mg of active ingredient are mixed with 0.5 ml of solvent and the concentrate is diluted to the desired concentration with solvent. 1 μl of the active ingredient solution is injected into the abdomen of 5 engorged adult female cattle ticks (Boophilus microplus). The animals are transferred into dishes and kept in a climate-controlled room. Efficacy is assessed after 7 days by laying of fertile eggs. Eggs which are not visibly fertile are stored in a climate-controlled cabinet until the larvae hatch after about 42 days. An efficacy of 100% means that none of the ticks has laid any fertile eggs; 0% means that all the eggs are fertile.

Tetranychus urticae = Tetranychus urticae spray test, OP-resistant; details: foliar, 144 h, bean leaf discs, after 6 days, read-out: efficacy
Method: [table] To produce a suitable active ingredient formulation, 1 part by weight of active ingredient is dissolved with the specified parts by weight of solvent and made up to the desired concentration with water containing an emulsifier concentration of 1000 ppm. To produce further test concentrations, the formulation is diluted with emulsifier-containing water. Discs of bean leaves (Phaseolus vulgaris) infested with all stages of the greenhouse red spider mite (Tetranychus urticae) are sprayed with an active ingredient formulation of the desired concentration. After 6 days, the efficacy in % is determined. 100% means that all the spider mites have been killed; 0% means that no spider mites have been killed.

Row | SMILES | pest or weed control at 100 g/ha (Myzus persicae [1]) [%] | pest or weed control at 100 g/ha (Phaedon cochleariae) [%] | pest or weed control at 4 ppm (Myzus persicae [2]) [%] | pest or weed control at 100 g/ha (Spodoptera frugiperda) [%] | pest or weed control at 100 ppm (Ctenocephalides felis [3]) [%] | pest or weed control at 100 ppm (Lucilia cuprina) [%] | pest or weed control at 5 µg/cm2, 500 g/ha (Ctenocephalides felis [4]) [%] | efficacy (Musca domestica) [%] | efficacy (Boophilus microplus) [%] | pest or weed control at 20 g/ha (Tetranychus urticae; application rate 20 g/ha) [%] | pest or weed control at 100 g/ha (Tetranychus urticae; application rate 100 g/ha) [%]
1 | CCS(=O)(=O)c1c(-c2nc3cc(C(F)(F)F)ncc3n2C)nc(-c2ccc(Cl)cc2)n1C [Example I-005] | 90 | 100 | 100 | 100 | 100 | 100 | 100 | 100 | – | – | –
2 | CCS(=O)(=O)c1c(-c2nc3cc(C(F)(F)F)ncc3n2C)nc(/C=C/C2CC2)n1C [Example I-007, 2-{2-[(E)-2-Cyclopropylvinyl]-5-(ethylsulfonyl)-1-methyl-1H-imidazol-4-yl}-3-methyl-6-(trifluoromethyl)-3H-imidazo[4,5-c]pyridine] | 90 | 100 | 100 | 100 | 95 | 100 | 100 | – | – | – | –
3 | CCn1c(-c2ccccc2)nc(-c2nc3cc(C(F)(F)F)ncc3n2C)c1S(=O)(=O)CC [Example I-009] | 90 | – | 100 | – | 95 | 100 | 100 | 80 | – | – | –
4 | CCn1c(Cl)nc(-c2nc3cc(C(F)(F)F)ncc3n2C)c1S(=O)(=O)CC [Example I-011] | 100 | 100 | 100 | 100 | 100 | 100 | 100 | – | – | – | –
5 | CCS(=O)(=O)c1c(-c2nc3cc(C(F)(F)F)ncc3n2C)nc(-c2cccc(Cl)n2)n1C [Example I-014, 2-[2-(6-Chloropyridin-2-yl)-5-(ethylsulfonyl)-1-methyl-1H-imidazol-4-yl]-3-methyl-6-(trifluoromethyl)-3H-imidazo[4,5-c]pyridine] | 100 | 100 | 100 | 100 | 100 | 100 | 100 | 80 | – | – | –
6 | CCS(=O)(=O)c1c(-c2nc3cc(C(F)(F)F)ncc3n2C)nc(-c2ccc(Cl)cn2)n1C [Example I-015] | 90 | 100 | 100 | 100 | 100 | 100 | 100 | – | – | – | –
7 | CCS(=O)(=O)c1c(-c2nc3cc(C(F)(F)F)ncc3n2C)nc(-c2cccnc2)n1C [Example I-016] | 100 | – | 100 | – | – | 100 | – | – | 90 | – | –
8 | CCS(=O)(=O)c1c(-c2nc3cc(C(F)(F)F)ncc3n2C)nc(-c2cncc(F)c2)n1C [Example I-018] | 100 | 100 | 100 | 83 | 100 | 100 | 100 | 80 | – | – | –
9 | CCS(=O)(=O)c1c(-c2nc3cc(C(F)(F)F)ncc3n2C)nc(-c2ccc(F)nc2)n1C [Example I-019, 2-[5-(Ethylsulfonyl)-2-(6-fluoropyridin-3-yl)-1-methyl-1H-imidazol-4-yl]-3-methyl-6-(trifluoromethyl)-3H-imidazo[4,5-c]pyridine] | 100 | 100 | 100 | 100 | 95 | 100 | 100 | 100 | – | – | –
10 | CCS(=O)(=O)c1c(-c2nc3cc(C(F)(F)F)ncc3n2C)nc(-c2cccnc2F)n1C [Example I-020] | 100 | 100 | 100 | 83 | 100 | 100 | 100 | – | – | – | –
11 | CCS(=O)(=O)c1c(-c2nc3cc(C(F)(F)F)ncc3n2C)nc(-c2ccncc2F)n1C [Example I-022] | 100 | 100 | 100 | – | 95 | 100 | 100 | – | – | – | –
12 | CCS(=O)(=O)c1c(-c2nc3cc(C(F)(F)F)ncc3n2C)nc(-c2cncnc2)n1C [Example I-023] | 100 | 100 | 100 | – | 100 | 100 | 100 | – | – | – | –
13 | CCS(=O)(=O)c1c(-c2nc3cc(C(F)(F)F)ncc3n2C)nc(-c2cc(Cl)cs2)n1C [Example I-033] | 90 | – | 100 | 100 | 100 | 100 | – | 90 | – | – | –
14 | CCNC(=O)c1nc(-c2nc3cc(C(F)(F)F)ncc3n2C)c(S(=O)(=O)CC)n1C [Example I-041] | 90 | 100 | 100 | – | – | – | – | – | 100 | – | –
15 | CCS(=O)(=O)c1c(-c2nc3cc(C(F)(F)F)ncc3n2C)nc(-c2ccn[nH]2)n1C [Example I-049] | 90 | 100 | 100 | – | 80 | 100 | – | 80 | – | 90 | 90
